Experimental data published in patent US7964531B2, “3-phenoxy-4-pyridazinol derivatives and herbicidal composition containing the same” (Mitsui Chemicals Agro, Inc., priority 2001, dated 2011).

Assays:
Type in all cases: in vivo
Conditions in all cases: wettable powder applied 3 days after transplanting, judged after 25 days
Cyperus serotinus = assay: Test Example 1: herbicidal effects, paddy-field pot test
Outline: (§1)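 Scores are growth inhibition ratings from 0 (0–10%) to 5 (91–100%), judged 25 days after a water-diluted wettable powder was applied to flooded pots. Treatment followed transplanting of 2.2-leaf rice by 3 days; weeds were seeded at the soil surface or planted as germinated tubers.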

Scirpus joncoides = assay: as above
Outline: as §1

[1] = test system: annual broad-leaved weeds (Lindernia spp., Rotala indica); assay: as above
Outline: as §1

[2] = test system: barnyardgrass (Echinochloa oryzicola Vasing.); assay: as above
Outline: as §1

[3] = test system: transplanted paddy-field rice; assay: Test Example 1: crop injury against transplanted paddy-field rice
Outline: as §1

| SMILES | Herbicidal effects Cyperus serotinus (Cyperus serotinus; chemical dosage 10 g/a) | Herbicidal effects Cyperus serotinus (Cyperus serotinus; chemical dosage 20 g/a) | Herbicidal effects Scirpus joncoides (Scirpus joncoides; chemical dosage 10 g/a) | Herbicidal effects Scirpus joncoides (Scirpus joncoides; chemical dosage 20 g/a) | Herbicidal effects Broad leaf ([1]; chemical dosage 10 g/a) | Herbicidal effects Broad leaf ([1]; chemical dosage 20 g/a) | Herbicidal effects Barnyard grass ([2]; chemical dosage 10 g/a) | Herbicidal effects Barnyard grass ([2]; chemical dosage 20 g/a) | Crop injury against transplanted rice ([3]; chemical dosage 10 g/a) | Crop injury against transplanted rice ([3]; chemical dosage 20 g/a) | Herbicidal effects Cyperus serotinus (Cyperus serotinus; chemical dosage 12.5 g/a) | Herbicidal effects Cyperus serotinus (Cyperus serotinus; chemical dosage 25 g/a) | Herbicidal effects Scirpus joncoides (Scirpus joncoides; chemical dosage 12.5 g/a) | Herbicidal effects Scirpus joncoides (Scirpus joncoides; chemical dosage 25 g/a) | Herbicidal effects Broad leaf ([1]; chemical dosage 12.5 g/a) | Herbicidal effects Broad leaf ([1]; chemical dosage 25 g/a) | Herbicidal effects Barnyard grass ([2]; chemical dosage 12.5 g/a) | Herbicidal effects Barnyard grass ([2]; chemical dosage 25 g/a) | Crop injury against transplanted rice ([3]; chemical dosage 12.5 g/a) | Crop injury against transplanted rice ([3]; chemical dosage 25 g/a) |
| --- | --- | --- | --- | --- | --- | --- | --- | --- | --- | --- | --- | --- | --- | --- | --- | --- | --- | --- | --- | --- |
| CC(C)c1cccc(C2CC2)c1Oc1nnc(Cl)cc1O [Example 272] | 4 (Growth inhibition rate; 71 to 90%) | 4 (Growth inhibition rate; 71 to 90%) | 4 (Growth inhibition rate; 71 to 90%) | 5 (Growth inhibition rate; 91 to 100%) | 5 (Growth inhibition rate; 91 to 100%) | 5 (Growth inhibition rate; 91 to 100%) | 0 (Growth inhibition rate; 0 to 10%) | 0 (Growth inhibition rate; 0 to 10%) | 0 (Growth inhibition rate; 0 to 10%) | 0 (Growth inhibition rate; 0 to 10%) | – | – | – | – | – | – | – | – | – | – |
| CSc1ccccc1Oc1nnc(Cl)cc1O [Example 129] | – | – | – | – | – | – | – | – | – | – | 4 (Growth inhibition rate; 71 to 90%) | 5 (Growth inhibition rate; 91 to 100%) | 3 (Growth inhibition rate; 51 to 70%) | 4 (Growth inhibition rate; 71 to 90%) | 5 (Growth inhibition rate; 91 to 100%) | 5 (Growth inhibition rate; 91 to 100%) | 1 (Growth inhibition rate; 11 to 30%) | 2 (Growth inhibition rate; 31 to 50%) | 0 (Growth inhibition rate; 0 to 10%) | 0 (Growth inhibition rate; 0 to 10%) |
| Oc1cc(Cl)nnc1Oc1ccccc1I [Example 52] | 5 (Growth inhibition rate; 91 to 100%) | 5 (Growth inhibition rate; 91 to 100%) | 5 (Growth inhibition rate; 91 to 100%) | 5 (Growth inhibition rate; 91 to 100%) | 5 (Growth inhibition rate; 91 to 100%) | 5 (Growth inhibition rate; 91 to 100%) | 3 (Growth inhibition rate; 51 to 70%) | 4 (Growth inhibition rate; 71 to 90%) | 0 (Growth inhibition rate; 0 to 10%) | 0 (Growth inhibition rate; 0 to 10%) | – | – | – | – | – | – | – | – | – | – |
| Oc1cc(Cl)nnc1Oc1c(F)cccc1Cl [Example 232] | 4 (Growth inhibition rate; 71 to 90%) | 5 (Growth inhibition rate; 91 to 100%) | 3 (Growth inhibition rate; 51 to 70%) | 4 (Growth inhibition rate; 71 to 90%) | 5 (Growth inhibition rate; 91 to 100%) | 5 (Growth inhibition rate; 91 to 100%) | 4 (Growth inhibition rate; 71 to 90%) | 4 (Growth inhibition rate; 71 to 90%) | 0 (Growth inhibition rate; 0 to 10%) | 0 (Growth inhibition rate; 0 to 10%) | – | – | – | – | – | – | – | – | – | – |
| Oc1cc(Cl)nnc1Oc1ccccc1OC(F)(F)F [Example 125] | 4 (Growth inhibition rate; 71 to 90%) | 5 (Growth inhibition rate; 91 to 100%) | 3 (Growth inhibition rate; 51 to 70%) | 4 (Growth inhibition rate; 71 to 90%) | 5 (Growth inhibition rate; 91 to 100%) | 5 (Growth inhibition rate; 91 to 100%) | 1 (Growth inhibition rate; 11 to 30%) | 2 (Growth inhibition rate; 31 to 50%) | 0 (Growth inhibition rate; 0 to 10%) | 0 (Growth inhibition rate; 0 to 10%) | – | – | – | – | – | – | – | – | – | – |
| CC(C)c1ccccc1Oc1nnc(Cl)cc1O [Example 57] | – | – | – | – | – | – | – | – | – | – | 5 (Growth inhibition rate; 91 to 100%) | 5 (Growth inhibition rate; 91 to 100%) | 3 (Growth inhibition rate; 51 to 70%) | 4 (Growth inhibition rate; 71 to 90%) | 5 (Growth inhibition rate; 91 to 100%) | 5 (Growth inhibition rate; 91 to 100%) | 2 (Growth inhibition rate; 31 to 50%) | 2 (Growth inhibition rate; 31 to 50%) | 0 (Growth inhibition rate; 0 to 10%) | 0 (Growth inhibition rate; 0 to 10%) |
| CCc1ccc2c(c1Oc1nnc(Cl)cc1O)CCC2 [Example 306] | 5 (Growth inhibition rate; 91 to 100%) | – | 5 (Growth inhibition rate; 91 to 100%) | – | 5 (Growth inhibition rate; 91 to 100%) | – | 1 (Growth inhibition rate; 11 to 30%) | – | 0 (Growth inhibition rate; 0 to 10%) | – | – | – | – | – | – | – | – | – | – | – |
| CCc1ccccc1Oc1nnc(Cl)cc1O [Example 55] | – | – | – | – | – | – | – | – | – | – | 5 (Growth inhibition rate; 91 to 100%) | 5 (Growth inhibition rate; 91 to 100%) | 3 (Growth inhibition rate; 51 to 70%) | 4 (Growth inhibition rate; 71 to 90%) | 5 (Growth inhibition rate; 91 to 100%) | 5 (Growth inhibition rate; 91 to 100%) | 2 (Growth inhibition rate; 31 to 50%) | 2 (Growth inhibition rate; 31 to 50%) | 0 (Growth inhibition rate; 0 to 10%) | 0 (Growth inhibition rate; 0 to 10%) |
| CSc1c(C)cc(C)cc1Oc1nnc(Cl)cc1O [Example 289] | – | – | – | – | – | – | – | – | – | – | 4 (Growth inhibition rate; 71 to 90%) | 5 (Growth inhibition rate; 91 to 100%) | 4 (Growth inhibition rate; 71 to 90%) | 5 (Growth inhibition rate; 91 to 100%) | 4 (Growth inhibition rate; 71 to 90%) | 5 (Growth inhibition rate; 91 to 100%) | 0 (Growth inhibition rate; 0 to 10%) | 0 (Growth inhibition rate; 0 to 10%) | 0 (Growth inhibition rate; 0 to 10%) | 0 (Growth inhibition rate; 0 to 10%) |
| Cc1ccccc1Oc1nnc(Cl)cc1OC(=O)OCC(Cl)(Cl)Cl [Example 349] | 5 (Growth inhibition rate; 91 to 100%) | 5 (Growth inhibition rate; 91 to 100%) | 4 (Growth inhibition rate; 71 to 90%) | 5 (Growth inhibition rate; 91 to 100%) | 4 (Growth inhibition rate; 71 to 90%) | 5 (Growth inhibition rate; 91 to 100%) | 3 (Growth inhibition rate; 51 to 70%) | 4 (Growth inhibition rate; 71 to 90%) | 0 (Growth inhibition rate; 0 to 10%) | 0 (Growth inhibition rate; 0 to 10%) | – | – | – | – | – | – | – | – | – | – |
